Some targets named below: KIT(V559D,V654A) (Homo sapiens, UniProt P10721, V559D/V654A); MAPKAPK5 (Homo sapiens, UniProt Q8IW41); RAF1 (Homo sapiens, UniProt P04049); CDK3 (Homo sapiens, UniProt Q00526); CAMK2A (Homo sapiens, UniProt Q9UQM7); EGFR(L861Q) (Homo sapiens, UniProt P00533, L861Q); TNNI3K (Homo sapiens, UniProt Q59H18).
What all share (test): biochemical
Design in all cases: DiscoverX KINOMEscan scanMAX competition binding panel, single concentration, percent of control; remaining binding: dose or concentration left out as unconfirmed
Common to all, as to conditions: KINOMEscan binding, percent of control; read-out: Table S4_SCANMAX REPORT - related to Fig. 1 / Percent Control

The next assay deals with T1, HPK1 (Homo sapiens, UniProt Q92918).
T1 construct: gene MAP4K1
T1 sequence (Q92918 whole entry): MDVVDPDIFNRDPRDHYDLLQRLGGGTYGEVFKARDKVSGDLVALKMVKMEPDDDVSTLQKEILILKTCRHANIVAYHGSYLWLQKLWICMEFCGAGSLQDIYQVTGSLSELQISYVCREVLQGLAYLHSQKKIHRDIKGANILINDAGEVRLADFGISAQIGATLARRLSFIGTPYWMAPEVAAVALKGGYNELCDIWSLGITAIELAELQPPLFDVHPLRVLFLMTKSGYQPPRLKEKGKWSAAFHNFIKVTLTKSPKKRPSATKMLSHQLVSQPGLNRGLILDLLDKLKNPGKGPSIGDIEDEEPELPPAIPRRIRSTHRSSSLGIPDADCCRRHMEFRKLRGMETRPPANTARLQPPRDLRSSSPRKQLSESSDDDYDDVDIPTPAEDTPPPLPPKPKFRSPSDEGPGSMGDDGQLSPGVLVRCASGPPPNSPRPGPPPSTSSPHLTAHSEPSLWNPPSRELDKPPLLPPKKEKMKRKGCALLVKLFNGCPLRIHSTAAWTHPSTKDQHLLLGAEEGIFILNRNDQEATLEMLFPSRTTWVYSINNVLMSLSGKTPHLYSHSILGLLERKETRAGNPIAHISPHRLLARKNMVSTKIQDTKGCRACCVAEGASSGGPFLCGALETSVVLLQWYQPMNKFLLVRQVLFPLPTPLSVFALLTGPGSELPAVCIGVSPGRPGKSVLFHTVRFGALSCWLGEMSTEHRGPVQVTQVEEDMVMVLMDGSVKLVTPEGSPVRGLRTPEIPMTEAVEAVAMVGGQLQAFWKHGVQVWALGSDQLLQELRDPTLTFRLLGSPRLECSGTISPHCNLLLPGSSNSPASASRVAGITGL

Assay [1] addresses T2, JAK1(JH1domain-catalytic) (Homo sapiens, UniProt P23458).
T2 construct: JH1domain-catalytic

In another assay the target is T3, VEGFR2 (Homo sapiens, UniProt P35968).
T3 construct: gene KDR
T3 sequence (P35968 whole entry): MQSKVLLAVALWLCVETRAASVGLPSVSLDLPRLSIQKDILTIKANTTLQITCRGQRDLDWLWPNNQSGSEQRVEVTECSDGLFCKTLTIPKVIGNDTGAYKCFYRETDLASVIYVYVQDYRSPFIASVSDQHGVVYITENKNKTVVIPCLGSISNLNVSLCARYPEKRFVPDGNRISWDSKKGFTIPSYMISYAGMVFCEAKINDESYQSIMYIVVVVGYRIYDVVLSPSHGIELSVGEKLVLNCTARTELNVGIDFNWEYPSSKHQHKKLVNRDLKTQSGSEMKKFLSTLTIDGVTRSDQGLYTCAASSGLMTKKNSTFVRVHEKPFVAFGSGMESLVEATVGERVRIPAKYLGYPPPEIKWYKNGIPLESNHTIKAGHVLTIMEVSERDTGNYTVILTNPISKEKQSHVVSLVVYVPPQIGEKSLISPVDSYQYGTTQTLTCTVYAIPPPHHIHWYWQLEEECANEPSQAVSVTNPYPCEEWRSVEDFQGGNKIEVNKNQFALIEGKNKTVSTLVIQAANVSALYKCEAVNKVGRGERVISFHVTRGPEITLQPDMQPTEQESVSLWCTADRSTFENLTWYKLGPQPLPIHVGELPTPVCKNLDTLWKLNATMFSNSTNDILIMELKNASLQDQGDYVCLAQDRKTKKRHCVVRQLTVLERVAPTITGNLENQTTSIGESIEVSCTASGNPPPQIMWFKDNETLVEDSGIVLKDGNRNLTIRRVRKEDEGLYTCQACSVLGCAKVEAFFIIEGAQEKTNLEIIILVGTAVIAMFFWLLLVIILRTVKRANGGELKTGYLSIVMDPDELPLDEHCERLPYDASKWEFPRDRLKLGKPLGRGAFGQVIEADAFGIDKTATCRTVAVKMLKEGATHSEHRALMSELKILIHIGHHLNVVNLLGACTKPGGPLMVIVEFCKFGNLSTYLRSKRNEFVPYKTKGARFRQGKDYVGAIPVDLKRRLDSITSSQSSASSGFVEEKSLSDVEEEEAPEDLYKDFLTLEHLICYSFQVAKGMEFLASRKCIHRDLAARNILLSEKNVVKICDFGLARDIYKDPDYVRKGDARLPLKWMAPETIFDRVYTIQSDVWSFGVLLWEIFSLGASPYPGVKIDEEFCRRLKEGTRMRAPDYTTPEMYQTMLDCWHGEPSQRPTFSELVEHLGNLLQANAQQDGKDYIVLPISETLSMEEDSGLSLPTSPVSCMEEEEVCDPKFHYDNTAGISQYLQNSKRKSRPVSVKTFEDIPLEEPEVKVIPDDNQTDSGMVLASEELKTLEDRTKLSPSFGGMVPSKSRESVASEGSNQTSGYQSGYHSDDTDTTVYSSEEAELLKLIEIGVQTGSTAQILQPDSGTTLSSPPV

The values that follow come from PMC7486443, “Generation of Phenothiazine with Potent Anti-TLK1 Activity for Prostate Cancer Therapy” (iScience, 2020).

Chain of CDK3 (Q00526 whole entry): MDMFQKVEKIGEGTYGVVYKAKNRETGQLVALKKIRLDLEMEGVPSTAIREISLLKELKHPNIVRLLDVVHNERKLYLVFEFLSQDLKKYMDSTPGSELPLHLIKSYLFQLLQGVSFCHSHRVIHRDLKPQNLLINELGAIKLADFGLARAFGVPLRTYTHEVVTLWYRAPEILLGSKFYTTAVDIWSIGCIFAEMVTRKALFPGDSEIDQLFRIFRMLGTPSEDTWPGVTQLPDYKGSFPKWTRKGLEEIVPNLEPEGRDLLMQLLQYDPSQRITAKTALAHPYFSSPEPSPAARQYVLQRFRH
Chain of KIT(V559D,V654A) (P10721 whole entry V559D/V654A): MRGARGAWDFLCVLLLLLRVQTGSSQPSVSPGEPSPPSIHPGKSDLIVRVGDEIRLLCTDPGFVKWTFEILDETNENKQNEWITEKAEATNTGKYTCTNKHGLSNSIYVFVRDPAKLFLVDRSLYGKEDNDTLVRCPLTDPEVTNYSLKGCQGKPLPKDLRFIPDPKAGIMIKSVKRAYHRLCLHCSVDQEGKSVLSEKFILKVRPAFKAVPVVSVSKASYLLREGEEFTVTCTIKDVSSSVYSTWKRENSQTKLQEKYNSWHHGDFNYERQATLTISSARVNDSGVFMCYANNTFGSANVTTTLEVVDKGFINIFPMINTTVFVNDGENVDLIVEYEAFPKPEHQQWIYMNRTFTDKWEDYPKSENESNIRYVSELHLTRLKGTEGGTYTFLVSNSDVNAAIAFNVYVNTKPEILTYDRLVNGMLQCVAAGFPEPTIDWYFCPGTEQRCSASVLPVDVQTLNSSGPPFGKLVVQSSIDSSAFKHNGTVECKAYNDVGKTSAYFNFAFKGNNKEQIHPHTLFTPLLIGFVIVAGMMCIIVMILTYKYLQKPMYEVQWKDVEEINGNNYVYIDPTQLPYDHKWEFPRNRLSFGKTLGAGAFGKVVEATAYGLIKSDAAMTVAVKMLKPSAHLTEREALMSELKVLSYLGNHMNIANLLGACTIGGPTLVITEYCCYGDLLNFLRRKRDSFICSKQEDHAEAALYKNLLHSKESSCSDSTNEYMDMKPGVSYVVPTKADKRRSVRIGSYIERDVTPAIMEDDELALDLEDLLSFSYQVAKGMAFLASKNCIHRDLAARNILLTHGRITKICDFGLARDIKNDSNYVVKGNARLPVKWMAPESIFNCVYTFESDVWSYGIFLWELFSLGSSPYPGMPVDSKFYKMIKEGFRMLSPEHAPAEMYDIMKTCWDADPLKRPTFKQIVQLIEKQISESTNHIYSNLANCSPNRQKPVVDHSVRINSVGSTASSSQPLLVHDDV
Chain of EGFR(L861Q) (P00533 whole entry L861Q): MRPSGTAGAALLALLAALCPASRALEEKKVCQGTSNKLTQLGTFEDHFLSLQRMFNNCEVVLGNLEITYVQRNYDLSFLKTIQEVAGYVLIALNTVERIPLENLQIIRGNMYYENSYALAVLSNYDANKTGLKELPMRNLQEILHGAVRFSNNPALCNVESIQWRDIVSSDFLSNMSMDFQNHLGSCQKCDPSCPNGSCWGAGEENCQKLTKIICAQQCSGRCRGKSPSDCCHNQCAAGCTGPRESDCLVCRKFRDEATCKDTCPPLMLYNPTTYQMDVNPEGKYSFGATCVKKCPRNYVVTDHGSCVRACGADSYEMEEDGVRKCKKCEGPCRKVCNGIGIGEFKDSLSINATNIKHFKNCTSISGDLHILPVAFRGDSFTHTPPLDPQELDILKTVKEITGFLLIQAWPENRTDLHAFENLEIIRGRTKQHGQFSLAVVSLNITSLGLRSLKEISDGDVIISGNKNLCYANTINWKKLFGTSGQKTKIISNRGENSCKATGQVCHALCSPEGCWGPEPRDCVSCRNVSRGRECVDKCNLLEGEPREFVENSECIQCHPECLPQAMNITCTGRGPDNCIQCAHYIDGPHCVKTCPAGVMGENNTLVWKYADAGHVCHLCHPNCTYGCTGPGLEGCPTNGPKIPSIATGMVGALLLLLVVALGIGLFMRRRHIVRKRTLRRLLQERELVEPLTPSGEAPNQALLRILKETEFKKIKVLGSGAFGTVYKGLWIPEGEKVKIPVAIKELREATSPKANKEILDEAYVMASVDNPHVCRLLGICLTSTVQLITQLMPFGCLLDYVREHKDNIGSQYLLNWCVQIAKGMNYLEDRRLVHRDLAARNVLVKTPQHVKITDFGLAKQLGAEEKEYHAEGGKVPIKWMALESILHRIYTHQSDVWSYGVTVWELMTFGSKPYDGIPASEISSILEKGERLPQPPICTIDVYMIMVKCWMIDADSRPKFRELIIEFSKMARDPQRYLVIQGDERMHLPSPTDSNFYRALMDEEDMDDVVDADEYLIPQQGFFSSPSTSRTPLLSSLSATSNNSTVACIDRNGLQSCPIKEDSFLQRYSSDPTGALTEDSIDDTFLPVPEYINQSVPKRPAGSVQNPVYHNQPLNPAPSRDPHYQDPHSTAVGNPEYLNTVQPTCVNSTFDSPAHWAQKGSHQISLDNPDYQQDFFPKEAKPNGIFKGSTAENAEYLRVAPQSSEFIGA

As for `c1ccc2c(c1)Sc1ccccc1N2CCN1CCOCC1` [J54], the remaining binding at KIT(V559D,V654A) worked out at 99%; on HPK1 it was 100%; at MAPKAPK5 it was 100%; at RAF1, 100%; on CDK3 it was 89%; on CAMK2A it was 78%. In addition, the remaining binding was 100% in [1], 94% on EGFR(L861Q), 100% on TNNI3K and 100% on VEGFR2.
